Key:
[1] = test system: EKVX; assay: NCI-60 SRB growth inhibition: EKVX; format: cell-based, human; conditions: Non-small cell lung cancer, 48 hours treatment; for CC50: Homo sapiens, read-out: LC50 (the source's name)
[2] = test system: A549/ATCC; assay: NCI-60 SRB growth inhibition: A549/ATCC; format: cell-based, human; conditions: Non-small cell lung cancer, 48 hours treatment; for CC50: Homo sapiens, read-out: LC50 (the source's name)
[3] = test system: K-562; assay: NCI-60 SRB growth inhibition: K-562; format: cell-based, human; conditions: K-562, Leukemia, 48 hours treatment; for CC50: Homo sapiens, K562, read-out: LC50 (the source's name)
[4] = test system: MALME-3M; assay: NCI-60 SRB growth inhibition: MALME-3M; format: cell-based, human; conditions: Melanoma, 48 hours treatment
[5] = molecular target: T1, CSNK1D (Homo sapiens, UniProt P48730); assay: Kinase binding screening: CSNK1D; conditions: 10 μM compound, read-out: B-POC (binding percentage of control)
T1 construct: purchased Ambit Bioscience (assay service)
T1 sequence (P48730 whole entry): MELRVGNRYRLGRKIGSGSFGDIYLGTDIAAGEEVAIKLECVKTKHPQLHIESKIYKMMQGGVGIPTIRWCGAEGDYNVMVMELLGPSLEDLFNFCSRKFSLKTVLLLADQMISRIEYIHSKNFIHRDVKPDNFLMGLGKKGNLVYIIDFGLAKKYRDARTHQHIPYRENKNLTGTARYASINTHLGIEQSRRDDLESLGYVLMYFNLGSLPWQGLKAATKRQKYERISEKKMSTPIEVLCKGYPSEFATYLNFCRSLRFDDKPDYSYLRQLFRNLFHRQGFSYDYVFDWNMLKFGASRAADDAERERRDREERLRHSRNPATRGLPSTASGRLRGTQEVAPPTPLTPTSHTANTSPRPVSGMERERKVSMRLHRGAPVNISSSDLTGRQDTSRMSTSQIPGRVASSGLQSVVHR
Protocol: Biotinylated kinase ligand was immobilized onto streptavidin coated magnetic beads and washed with blocking buffer. The liganded beads were then incubated with DNA-tagged kinase in the presence of test compound for 1 h at room temperature. Binding reactions were carried out in 20% Seablock, 0.17×PBS, 0.005% Tween 20, 6 mM DTT, in a final volume of 0.04 mL. Beads were then washed with wash buffer (PBS, 0.05% Tween 20), and then incubated with elution buffer (PBS, 0.05% Tween […] non-biotinylated kinase ligand) and eluted. The kinase concentration in the eluate was then measured by quantitative PCR. […] The results of this single dose screening are reported in the form of binding percentage of control (B-POC) which is defined as follows:
[formula] The negative control signal is obtained by the vehicle and corresponds to B-POC=100%. The positive signal control is detected by a binding positive compound and is B-POC 0%. The B-POC results are the average of duplicate measurements. Only interactions with […] were considered significant and thus used for calculating the selectivity scores (Table 1) of the test compounds as follows:
[formula] […] The Kd is then calculated according to the following equation:
[formula] hill slope=−1. A non-linear least square fit with the Levenberg-Marquardt algorithm was implemented to fit the curves (FIG. 3). Kinase binding assays were performed by Ambit Bioscience (San Diego, Calif., USA).
The results of kinase binding assay are shown in Table 1, which includes the B-POC values of 10 μM of compounds 4, 15, and 16 against the most sensitive kinases tested within this binding experiment. […] Kinases within the same subfamily are highlighted. […] Both the B-POC and Kd values are the average of duplicate measurements.
J. et al. Bioorganic and Medicinal Chemistry Letters 2009, 19, 1206-1209; Chao, Q. et al. Journal of Medicinal Chemistry 2009, 52, 7808-7816.). A single dose of 10 μM was chosen to allow for detecting kinases able to bind to the test compounds. In this binding assay, a set of 243 kinases were included. […]

[6] = test system: MDA-MB-435; assay: NCI-60 SRB growth inhibition: MDA-MB-435; format: cell-based, human; conditions: MDA-MB-435, Melanoma, 48 hours treatment; for CC50: Homo sapiens, read-out: LC50 (the source's name)
[7] = test system: RPMI-8226; assay: NCI-60 SRB growth inhibition: RPMI-8226; format: cell-based, human; conditions: RPMI-8226, Leukemia, 48 hours treatment; for CC50: Homo sapiens, read-out: LC50 (the source's name)
[8] = test system: UO-31; assay: NCI-60 SRB growth inhibition: UO-31; format: cell-based, human; conditions: UO-31, Renal cancer; 48 hours treatment
[9] = test system: UACC-62; assay: NCI-60 SRB growth inhibition: UACC-62; format: cell-based, human; conditions: UACC-62, Melanoma; 48 hours treatment
[10] = test system: MCF7; assay: NCI-60 SRB growth inhibition: MCF7; format: cell-based, human; conditions: MCF7, Breast cancer; 48 hours treatment
[11] = test system: HL-6O(TB); assay: NCI-60 SRB growth inhibition: HL-6O(TB); format: cell-based, human; conditions: Leukemia, 48 hours treatment
[12] = test system: IGROVI; assay: NCI-60 SRB growth inhibition: IGROVI; format: cell-based, human; conditions: Ovarian cancer, 48 hours treatment; for CC50: Homo sapiens, read-out: LC50 (the source's name)
[13] = test system: SN12C; assay: NCI-60 SRB growth inhibition: SN12C; format: cell-based, human; conditions: Renal cancer, 48 hours treatment; for CC50: Homo sapiens, read-out: LC50 (the source's name)
[14] = test system: LOX 1MVI; assay: NCI-60 SRB growth inhibition: LOX 1MVI; format: cell-based, human; conditions: Melanoma, 48 hours treatment
[15] = test system: OVCAR-8; assay: NCI-60 SRB growth inhibition: OVCAR-8; format: cell-based, human; conditions: OVCAR-8, Ovarian cancer, 48 hours treatment; for CC50: Homo sapiens, read-out: LC50 (the source's name)
[16] = test system: SF-539; assay: NCI-60 SRB growth inhibition: SF-539; format: cell-based, human; conditions: SF-539, CNS cancer; 48 hours treatment
[17] = test system: PC-3; assay: NCI-60 SRB growth inhibition: PC-3; format: cell-based, human; conditions: PC-3, Prostate cancer; 48 hours treatment
[18] = test system: TK-10; assay: NCI-60 SRB growth inhibition: TK-10; format: cell-based, human; conditions: TK-10, Renal cancer, 48 hours treatment; for CC50: Homo sapiens, read-out: LC50 (the source's name)
[19] = test system: SNB-19; assay: NCI-60 SRB growth inhibition: SNB-19; format: cell-based, human; conditions: SNB-19, CNS cancer, 48 hours treatment; for CC50: Homo sapiens, read-out: LC50 (the source's name)

Row | SMILES | CC50 [1] [µM] | TGI [1] [µM] | CC50 [2] [µM] | TGI [2] [µM] | CC50 [3] [µM] | TGI [3] [µM] | TGI [4] [µM] | remaining activity at 10 µM [5] [%] | CC50 [6] [µM] | TGI [6] [µM] | CC50 [7] [µM] | TGI [7] [µM] | TGI [8] [µM] | TGI [9] [µM] | TGI [10] [µM] | TGI [11] [µM] | CC50 [12] [µM] | TGI [12] [µM] | CC50 [13] [µM] | TGI [13] [µM] | also measured
1 | c1ccc(Cc2cnc(N3CCN(c4ncnc5ccccc45)CC3)nc2)cc1 [Compound 4, 4-(4-(5-benzylpyrimidin-2-yl)piperazin-1-yl)quinazoline] | > 100 | 33.10 | > 100 | 35.70 | > 100 | >100 | 33.60 | 26 | 91.4 | 27.50 | 97.3 | 21.80 | 38.40 | 25.90 | 58.20 | 41.80 | > 100 | 63.30 | 54.8 | 24.40 | TGI [14]: 19.60 µM; CC50 [15]: 71.3 µM; TGI [15]: 25.60 µM; TGI [16]: 28.50 µM; TGI [17]: >100 µM; CC50 [18]: > 100 µM; TGI [18]: 60.80 µM; CC50 [19]: > 100 µM; TGI [19]: >100 µM
2 | CCc1cnc(N2CCN(C(=O)c3ccc(CNc4ncnc5ccccc45)cc3)CC2)nc1 [Compound 15, (4-(5-ethylpyrimidin-2-yl)piperazin-1-yl)(4-((quinazolin-4-ylamino)methyl)phenyl)methanone] | > 100 | 61.40 | > 100 | >100 | > 100 | >100 | 42.20 | 23 | > 100 | >100 | > 100 | 14.30 | 60.50 | 80.90 | 72.80 | 38.60 | > 100 | 49.80 | > 100 | 59.00 | TGI [14]: 28.70 µM; CC50 [15]: > 100 µM; TGI [15]: >100 µM; TGI [16]: >100 µM; TGI [17]: >100 µM; CC50 [18]: > 100 µM; TGI [18]: >100 µM; CC50 [19]: > 100 µM; TGI [19]: >100 µM
3 | O=C(c1cccc(Nc2ncnc3ccccc23)c1)N1CCN(c2ncc(Cc3ccccc3)cn2)CC1 [Compound 16, (4-(5-benzylpyrimidin-2-yl)piperazin-1-yl)(3-(quinazolin-4-ylamino)phenyl)methanone] | > 100 | 4.90 | 8.13 | 3.09 | > 100 | 2.23 | 2.57 | 22 | 4.57 | 2.14 | 3.89 | 0.60 | 1.82 | 1.86 | 2.29 | 1.54 | 5.01 | 1.82 | > 100 | 7.08 | TGI [14]: 2.45 µM; CC50 [15]: > 100 µM; TGI [15]: 3.31 µM; TGI [16]: 4.90 µM; TGI [17]: 2.88 µM; CC50 [18]: 39.8 µM; TGI [18]: 6.17 µM; CC50 [19]: > 100 µM; TGI [19]: 8.91 µM
